Reference: ChEMBL document CHEMBL1201862, “PubChem BioAssay data set” (2004)
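Results reflect a 48-hour exposure of cells in 96-well plates to compound at five concentrations. The concentration for 50% growth inhibition is given as GI50.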 Calls of active or inactive are those of the source. No stated cut-off is given here; in the data, active = GI50 up to about 1.1 µM and inactive = higher.

What was measured:
Experiment in all cases: NCI tumour cell line growth inhibition, 48 h
BT-549 = tested on: BT-549
CCRF-CEM = tested on: CCRF-CEM
EKVX = tested on: EKVX
KM12 = tested on: KM12
M14 = tested on: M14
MDA-MB-435 = tested on: MDA-MB-435
MOLT-4 = tested on: MOLT-4
NCI-H460 = tested on: NCI-H460
NCI/ADR-RES = tested on: NCI/ADR-RES
SF-539 = tested on: SF-539
SNB-19 = tested on: SNB-19
TK-10 = tested on: TK-10
A498 = tested on: A498
CAKI-1 = tested on: CAKI-1
HCC 2998 = tested on: HCC 2998
IGROV-1 = tested on: IGROV-1
SK-MEL-2 = tested on: SK-MEL-2
SK-MEL-5 = tested on: SK-MEL-5
UACC-62 = tested on: UACC-62
MDA-MB-231 = tested on: MDA-MB-231

Compound	GI50 (BT-549)	GI50 (CCRF-CEM)	GI50 (EKVX)	GI50 (KM12)	GI50 (M14)	GI50 (MDA-MB-435)	GI50 (MOLT-4)	GI50 (NCI-H460)	GI50 (NCI/ADR-RES)	GI50 (SF-539)	GI50 (SNB-19)	GI50 (TK-10)	GI50 (A498)	GI50 (CAKI-1)	GI50 (HCC 2998)	GI50 (IGROV-1)	GI50 (SK-MEL-2)	GI50 (SK-MEL-5)	GI50 (UACC-62)	GI50 (MDA-MB-231)
Cc1ccc(/S(Cc2ccccc2)=N\S(=O)(=O)c2ccc(C)cc2)cc1 (stereo unspecified)	> 100 µM (inactive)	> 100 µM (inactive)	> 100 µM (inactive)	> 100 µM (inactive)	> 100 µM (inactive)	> 100 µM (inactive)	5.92 µM (inactive)	> 100 µM (inactive)	50 µM (inactive)	> 100 µM (inactive)	> 100 µM (inactive)	> 100 µM (inactive)								
S=C(Nc1ccccc1)c1ccc(CN2CCCCC2)s1	21.4 µM (inactive)	16.4 µM (inactive)	41.8 µM (inactive)	17.8 µM (inactive)	16 µM (inactive)	18.1 µM (inactive)	16.1 µM (inactive)	21.6 µM (inactive)	28.6 µM (inactive)	37.8 µM (inactive)	20.2 µM (inactive)		18.4 µM (inactive)	20.7 µM (inactive)	21.8 µM (inactive)	24 µM (inactive)	20.5 µM (inactive)	16.3 µM (inactive)	18.7 µM (inactive)	
CCCSc1ccc2[nH]c(N3C(=O)/C(=C/c4ccccc4)N=C3c3ccccc3)cc2c1	19.9 µM (inactive)	18.4 µM (inactive)	19.1 µM (inactive)	15.1 µM (inactive)	16.6 µM (inactive)	8.3 µM (inactive)	16.3 µM (inactive)		16.9 µM (inactive)	18.1 µM (inactive)	41.4 µM (inactive)		27 µM (inactive)	27.2 µM (inactive)	15.1 µM (inactive)	31.9 µM (inactive)	0.391 µM (active)	14.2 µM (inactive)	21.5 µM (inactive)	
CC(C)=CC1C(COC(=O)c2cc3c(cc2Cl)OCO3)C1(C)C (stereo unspecified)	33 µM (inactive)	26.9 µM (inactive)	30.4 µM (inactive)	28.2 µM (inactive)	38.7 µM (inactive)	28 µM (inactive)	16.1 µM (inactive)	33 µM (inactive)	35.6 µM (inactive)		95.7 µM (inactive)	> 100 µM (inactive)	31.5 µM (inactive)	22.7 µM (inactive)		45.2 µM (inactive)	18.6 µM (inactive)	20 µM (inactive)	36.1 µM (inactive)	73.6 µM (inactive)
CO[C@@]12C[C@@H](CNC(=O)c3cc(Br)c[nH]3)O[C@@H]1NC(=O)N2	> 100 µM (inactive)	> 100 µM (inactive)	> 100 µM (inactive)	> 100 µM (inactive)	> 100 µM (inactive)	> 100 µM (inactive)		> 100 µM (inactive)	> 100 µM (inactive)	> 100 µM (inactive)	> 100 µM (inactive)	> 100 µM (inactive)	> 100 µM (inactive)	> 100 µM (inactive)		> 100 µM (inactive)	> 100 µM (inactive)	> 100 µM (inactive)	> 100 µM (inactive)	> 100 µM (inactive)
CCOP(=O)(O)C1C(CO)OC(n2ccc(=O)[nH]c2=O)C1O (stereo unspecified)	> 100 µM (inactive)	> 100 µM (inactive)	> 100 µM (inactive)	> 100 µM (inactive)	> 100 µM (inactive)		> 100 µM (inactive)	> 100 µM (inactive)		> 100 µM (inactive)	> 100 µM (inactive)	> 100 µM (inactive)	> 100 µM (inactive)	> 100 µM (inactive)	> 100 µM (inactive)	> 100 µM (inactive)	> 100 µM (inactive)	> 100 µM (inactive)	> 100 µM (inactive)	> 100 µM (inactive)
O=[N+]([O-])/C(C(Cl)=C(Cl)Cl)=C1\Nc2ccc([N+](=O)[O-])cc2N1	62.2 µM (inactive)	27.4 µM (inactive)	> 100 µM (inactive)	> 100 µM (inactive)	> 100 µM (inactive)	> 100 µM (inactive)	45.1 µM (inactive)	> 100 µM (inactive)	> 100 µM (inactive)		> 100 µM (inactive)	> 100 µM (inactive)	> 100 µM (inactive)	72.1 µM (inactive)			> 100 µM (inactive)	> 100 µM (inactive)	> 100 µM (inactive)	45.2 µM (inactive)
O=C1N/C(=N/N=C/c2ccccc2)N/C1=C\c1c[nH]c2ccccc12	> 100 µM (inactive)	11.4 µM (inactive)	84.5 µM (inactive)	65 µM (inactive)	71.6 µM (inactive)	> 100 µM (inactive)	25.1 µM (inactive)	61 µM (inactive)	> 100 µM (inactive)	> 100 µM (inactive)	22.8 µM (inactive)	> 100 µM (inactive)	> 100 µM (inactive)	> 100 µM (inactive)		> 100 µM (inactive)	> 100 µM (inactive)	> 100 µM (inactive)	> 100 µM (inactive)	42.9 µM (inactive)
c1ccc2c(Cc3c[nH]c4ccccc34)c[nH]c2c1 [ARUNDINE]	18.2 µM (inactive)	12.8 µM (inactive)	14.4 µM (inactive)	19.1 µM (inactive)	16.6 µM (inactive)	15.6 µM (inactive)	13.5 µM (inactive)	19 µM (inactive)	19.1 µM (inactive)		21.7 µM (inactive)	19.4 µM (inactive)	38.8 µM (inactive)	15.9 µM (inactive)		14.7 µM (inactive)	22.8 µM (inactive)	13.7 µM (inactive)	> 100 µM (inactive)	14.3 µM (inactive)
N#CC1CNC(N)NC1N (stereo unspecified)	> 100 µM (inactive)	< 0.01 µM (active)	> 100 µM (inactive)	> 100 µM (inactive)	> 100 µM (inactive)	> 100 µM (inactive)		> 100 µM (inactive)	> 100 µM (inactive)	> 100 µM (inactive)	> 100 µM (inactive)	> 100 µM (inactive)	> 100 µM (inactive)	> 100 µM (inactive)		> 100 µM (inactive)	> 100 µM (inactive)	> 100 µM (inactive)	> 100 µM (inactive)	> 100 µM (inactive)
O=[N+]([O-])/C=C/c1ccc2ccccc2c1	2.74 µM (inactive)	4.61 µM (inactive)	22.7 µM (inactive)	1.77 µM (inactive)	3.99 µM (inactive)	2.04 µM (inactive)		6.81 µM (inactive)	4.27 µM (inactive)	3.04 µM (inactive)	2.19 µM (inactive)	6.21 µM (inactive)	13 µM (inactive)	8.43 µM (inactive)		2.79 µM (inactive)	22.6 µM (inactive)	3.19 µM (inactive)	15.4 µM (inactive)	3.82 µM (inactive)
